Test results from ChEMBL document CHEMBL1201862, “PubChem BioAssay data set” (2004).
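Results reflect a 48-hour exposure of cells in 96-well plates to compound at five concentrations. At the GI50, growth is halved.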 Activity calls are given as the source filed them. No stated cut-off is given here; in the data, active = GI50 up to about 1.1 µM and inactive = higher. Where a SMILES comes first, the peptide text is derived from it. [ ]: non-standard residue; d: D form. The star is where a group is joined. Iva = CC[C](C)(N)C(=O)O; Boc = CC(C)(C)OC(=O)*; X54 = C1CCC(=NO*)C1

What was measured:
Test in all cases: growth of human tumour cells (NCI), 48 h
ACHN = test system: ACHN
HCC 2998 = test system: HCC 2998
MDA-MB-231 = test system: MDA-MB-231
MDA-MB-435 = test system: MDA-MB-435
NCI/ADR-RES = test system: NCI/ADR-RES
OVCAR-4 = test system: OVCAR-4
OVCAR-5 = test system: OVCAR-5
SF-539 = test system: SF-539
SN12C = test system: SN12C
T47D = test system: T47D
UACC-257 = test system: UACC-257
UO-31 = test system: UO-31
HCT-116 = test system: HCT-116
DLD-1 = test system: DLD-1
DMS-114 = test system: DMS-114
DMS-273 = test system: DMS-273
M19-MEL = test system: M19-MEL
SNB-78 = test system: SNB-78
LXFL 529 = test system: LXFL 529
XF498 = test system: XF498

Measured: GI50

COC(=O)/C=C\Sc1ccn(/C=C\C(=O)OC)c(=S)n1
inactive: ACHN 18.2 µM | HCC 2998 37.1 µM | MDA-MB-231 26.1 µM | MDA-MB-435 23.1 µM | NCI/ADR-RES 19.6 µM | OVCAR-4 16.9 µM | OVCAR-5 38.5 µM | SF-539 18.4 µM | SN12C 23.6 µM | T47D 18.4 µM | UACC-257 28.6 µM | UO-31 25.1 µM

C/C(=N/NC(=O)c1ccncc1)C(F)(F)F
inactive: HCC 2998 > 100 µM | HCT-116 > 100 µM | MDA-MB-435 > 100 µM | NCI/ADR-RES > 100 µM | OVCAR-5 > 100 µM | SN12C > 100 µM | T47D > 100 µM | UO-31 > 100 µM

CSc1cc(=O)n2c3ccccc3c3ccnc1c32
inactive: DLD-1 49.7 µM | DMS-114 > 100 µM | DMS-273 79.6 µM | HCC 2998 > 100 µM | HCT-116 > 100 µM | M19-MEL > 100 µM | NCI/ADR-RES 73.8 µM | OVCAR-4 > 100 µM | OVCAR-5 97.1 µM | SF-539 > 50 µM | SN12C > 100 µM | SNB-78 > 70.8 µM | UACC-257 > 54.5 µM | UO-31 45.6 µM

OCC(O)COc1ccc(Br)cc1 (stereo unspecified)
inactive: ACHN > 100 µM | DLD-1 > 100 µM | DMS-114 > 100 µM | DMS-273 > 100 µM | HCC 2998 > 100 µM | HCT-116 > 100 µM | LXFL 529 > 100 µM | OVCAR-4 > 100 µM | OVCAR-5 > 100 µM | SF-539 > 100 µM | SN12C 60.3 µM | UACC-257 > 100 µM | UO-31 > 100 µM | XF498 > 100 µM

CC(C(=O)O)c1cnn(-c2ccccc2)c1-n1cccc1 (stereo unspecified)
inactive: DLD-1 > 100 µM | DMS-273 > 100 µM | HCC 2998 > 100 µM | HCT-116 > 100 µM | M19-MEL > 100 µM | NCI/ADR-RES > 100 µM | OVCAR-4 > 100 µM | OVCAR-5 > 100 µM | SF-539 > 100 µM | SN12C > 100 µM | SNB-78 > 100 µM | UACC-257 > 100 µM | UO-31 > 100 µM | XF498 > 100 µM

COc1ccc(/C=N/n2cnc3c(c2=O)SC(=C(C#N)C#N)N3c2ccccc2)cc1
inactive: ACHN > 100 µM | DLD-1 > 100 µM | HCC 2998 > 100 µM | HCT-116 > 100 µM | LXFL 529 > 100 µM | M19-MEL > 100 µM | OVCAR-5 > 100 µM | SF-539 36.2 µM | UACC-257 > 100 µM | UO-31 > 100 µM

COc1cc2cc[n+]3c(C)c4cc(OC)c(OC)cc4c([O-])c3c2cc1OC
inactive: ACHN > 100 µM | DLD-1 > 100 µM | DMS-114 30.3 µM | DMS-273 53.6 µM | HCC 2998 > 100 µM | HCT-116 89.7 µM | LXFL 529 40.1 µM | M19-MEL 46.6 µM | OVCAR-4 85.7 µM | OVCAR-5 > 100 µM | SF-539 36.9 µM | SN12C 32.7 µM | SNB-78 > 100 µM | UACC-257 30.8 µM | UO-31 > 100 µM | XF498 22.1 µM

O=C1C(Cl)N(c2ccc(Cl)cc2)C1c1c[nH]c2ccccc12 (stereo unspecified)
inactive: DMS-114 14.2 µM | HCT-116 13.8 µM | LXFL 529 14.1 µM | M19-MEL 24.3 µM | OVCAR-4 39.7 µM | SF-539 18.2 µM | SN12C 17.7 µM | UACC-257 16.8 µM | UO-31 11.6 µM | XF498 17.5 µM

COc1ccc(-c2c3c(nc4nc(SCC(=O)c5ccc(Br)cc5)nc(N)c24)CCCC3)cc1OC
inactive: ACHN > 100 µM | HCT-116 > 100 µM | MDA-MB-231 26.9 µM | MDA-MB-435 > 100 µM | NCI/ADR-RES 74.5 µM | OVCAR-4 33.7 µM | OVCAR-5 > 100 µM | SF-539 > 100 µM | SN12C > 100 µM | T47D 73.6 µM | UACC-257 > 100 µM | UO-31 > 100 µM

NC(Cc1ccccc1CP(=O)(O)O)C(=O)O (stereo unspecified)
inactive: ACHN > 100 µM | HCC 2998 > 100 µM | HCT-116 > 100 µM | MDA-MB-231 > 100 µM | MDA-MB-435 > 100 µM | NCI/ADR-RES > 100 µM | OVCAR-4 > 100 µM | OVCAR-5 > 100 µM | SF-539 > 100 µM | SN12C > 100 µM | T47D 35.9 µM | UACC-257 > 100 µM | UO-31 > 100 µM

COc1ncnc2c(Cl)c(C(O)c3ccccc3)c(Cl)cc12 (stereo unspecified)
inactive: ACHN 26.4 µM | HCT-116 17.9 µM | MDA-MB-231 18.6 µM | MDA-MB-435 5.57 µM | NCI/ADR-RES 28 µM | OVCAR-4 29.1 µM | OVCAR-5 60.5 µM | SF-539 20.6 µM | SN12C 28.1 µM | T47D 40.1 µM | UACC-257 > 100 µM | UO-31 37.3 µM

CCC(C)(NC(=O)C(C)NC(=O)OC(C)(C)C)C(=O)NC(C)C(=O)NC(C)(CC)C(=O)ON=C1CCCC1 (stereo unspecified) (Boc-A[Iva]A[Iva]-X54; configuration not given here)
inactive: HCC 2998 > 100 µM | HCT-116 > 100 µM | MDA-MB-231 > 100 µM | MDA-MB-435 > 100 µM | NCI/ADR-RES > 100 µM | OVCAR-5 > 100 µM | SN12C > 100 µM | T47D > 100 µM | UO-31 > 100 µM

CCOC(=O)c1ccc(N2C(=O)/C(=C/c3ccc(N(CCC#N)CCC#N)cc3)N=C2c2cc([N+](=O)[O-])ccc2Cl)cc1
inactive: ACHN > 100 µM | DLD-1 > 100 µM | DMS-114 > 100 µM | DMS-273 > 100 µM | HCC 2998 > 100 µM | HCT-116 > 100 µM | LXFL 529 > 100 µM | M19-MEL > 100 µM | OVCAR-4 > 100 µM | OVCAR-5 > 100 µM | SF-539 > 100 µM | SN12C > 100 µM | SNB-78 > 100 µM | UO-31 > 100 µM

C[C@@H]1C[C@]2(C[C@@H](C)[C@H]3C(C[C@@]4(C)CCC[C@@H]5C6=C[C@H](CCC34C)OC6=CC(=O)OC5(C)C)O2)OC1=O (stereo partly specified)
inactive: DLD-1 > 51.5 µM | DMS-114 > 51.5 µM | DMS-273 > 51.5 µM | HCC 2998 > 51.5 µM | M19-MEL > 51.5 µM | NCI/ADR-RES > 51.5 µM | OVCAR-4 > 51.5 µM | OVCAR-5 > 51.5 µM | SF-539 > 51.5 µM | SN12C > 51.5 µM | SNB-78 > 51.5 µM | UACC-257 > 51.5 µM | UO-31 > 51.5 µM | XF498 > 51.5 µM

CCOC(=O)C1=C(C)N(C2OC(COC(C)=O)C(OC(C)=O)C(OC(C)=O)C2OC(C)=O)C(=O)NC1c1ccccc1 (stereo unspecified)
inactive: ACHN > 100 µM | DLD-1 > 100 µM | DMS-114 > 100 µM | HCC 2998 > 100 µM | HCT-116 > 100 µM | LXFL 529 > 100 µM | M19-MEL > 100 µM | OVCAR-4 > 100 µM | OVCAR-5 > 100 µM | SF-539 > 100 µM | SN12C > 100 µM | SNB-78 > 100 µM | UACC-257 > 100 µM | UO-31 > 100 µM

O=C1C(CO)=C[C@H](O)[C@H]2O[C@@H]12
inactive: DLD-1 113 µM | DMS-114 137 µM | DMS-273 185 µM | HCC 2998 311 µM | HCT-116 104 µM | M19-MEL 120 µM | NCI/ADR-RES 162 µM | OVCAR-4 130 µM | OVCAR-5 264 µM | SF-539 242 µM | SN12C 128 µM | SNB-78 186 µM | UACC-257 158 µM | UO-31 267 µM | XF498 177 µM

CC(=O)c1ccc(Oc2ccc(/C(C)=N\N=C(N)N)cc2)cc1
inactive: ACHN 4.73 µM | DLD-1 3.56 µM | DMS-114 1.43 µM | HCC 2998 8.41 µM | HCT-116 3.24 µM | LXFL 529 4.18 µM | OVCAR-4 10.6 µM | OVCAR-5 4.68 µM | SF-539 1.72 µM | SN12C 3.17 µM | SNB-78 2.8 µM | UACC-257 5.68 µM

COc1cc(C(O)(CC#N)c2cc3c(cc2Br)OCO3)cc(OC)c1OC (stereo unspecified)
inactive: ACHN 92.7 µM | HCC 2998 24 µM | HCT-116 40.6 µM | MDA-MB-231 21.4 µM | MDA-MB-435 3 µM | NCI/ADR-RES 40 µM | OVCAR-4 > 100 µM | OVCAR-5 17.4 µM | SF-539 8.05 µM | SN12C > 100 µM | T47D > 100 µM | UACC-257 27.9 µM | UO-31 57.5 µM

CC1=NN(C(=O)c2ccc(C)cc2)C(=O)C1/N=N/c1ccccc1C(=O)O (stereo unspecified)
inactive: DLD-1 > 100 µM | DMS-114 > 100 µM | DMS-273 > 100 µM | HCC 2998 > 100 µM | HCT-116 > 100 µM | M19-MEL > 100 µM | NCI/ADR-RES > 100 µM | OVCAR-4 > 100 µM | OVCAR-5 > 100 µM | SF-539 > 100 µM | SN12C > 100 µM | SNB-78 > 94 µM | UACC-257 > 100 µM | UO-31 > 100 µM | XF498 61.8 µM
